Laboratory results published in PMC10766536 (The Journal of Antibiotics, 2023).
Like-named read-outs stand apart in the source and are kept apart here.

Tests used:
[1] = biological target: T1, MDCK-MDR1: overexpression of Pgp (Homo sapiens, UniProt P08183); assay: MDCK-MDR1 permeability and efflux
[2] = tested on: S. aureus MRSA strain N315; assay: S. aureus IV advanced disseminated infection mouse model, kidney burden; assay type: in vivo, Balb/c mice
Experimental: (§1) S. aureus MSRA strain NRS384 or N315 (BEI Resources), where indicated, was grown overnight in TSB and sub-cultured to mid-logarithmic phase. […] From 1 to 3 days post-infection, indicated mice were injected subcutaneously with 110 mg/kg vancomycin twice daily where indicated. […] Mice were monitored for weight loss and body conditioning score throughout the infection. At 4 days post-infection, mice were euthanized, and the S. aureus kidney burden was quantified by tissue homogenization followed by enumeration of cfu through serial dilution in PBS and plating onto TSA plates. Data points represent the kidney burden from individual mice tested. Statistical analysis was conducted with GraphPad Prism 9, Version 9.4.1.

[3] = tested on: S. aureus MRSA strain NRS384; assay: as above; assay type: in vivo, Balb/c mice; conditions: 0.01–0.25 mg/kg sc single dose in combination with vancomycin, NRS384
Experimental: as §1

[4] = tested on: Salmonella typhimurium AR-0031; assay: S. typhimurium broth killing (growth inhibition) assay; conditions: Salmonella typhimurium AR-0031, TSB, 24 h
From the text: (§3) To test the potency of rifamycin analogs of the disclosure in vitro, a broth growth inhibition assay was developed.

[5] = mouse, s9
[6] = biological target: T1, MDCK-MDR1: overexpression of Pgp
[7] = biological target: CYP 2B6 (Homo sapiens, UniProt P20813)
CYP 2B6 (Homo sapiens, UniProt P20813), sequence (P20813 whole entry): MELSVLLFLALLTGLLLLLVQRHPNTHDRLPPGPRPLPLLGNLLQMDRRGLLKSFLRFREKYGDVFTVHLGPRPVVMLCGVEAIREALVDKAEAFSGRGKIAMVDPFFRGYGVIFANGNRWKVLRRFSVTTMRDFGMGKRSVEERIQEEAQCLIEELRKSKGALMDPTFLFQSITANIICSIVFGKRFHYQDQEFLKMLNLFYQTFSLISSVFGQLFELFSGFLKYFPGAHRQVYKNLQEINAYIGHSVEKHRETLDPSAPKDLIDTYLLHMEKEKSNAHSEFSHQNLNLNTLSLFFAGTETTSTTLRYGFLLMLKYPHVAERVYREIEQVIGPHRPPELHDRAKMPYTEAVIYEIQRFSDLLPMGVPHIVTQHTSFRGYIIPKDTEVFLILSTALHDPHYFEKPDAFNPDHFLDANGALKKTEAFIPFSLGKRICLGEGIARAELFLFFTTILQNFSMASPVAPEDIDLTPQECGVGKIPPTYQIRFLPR

[8] = biological target: CYP 2C19 (Homo sapiens, UniProt P33261)
CYP 2C19, sequence (P33261 whole entry): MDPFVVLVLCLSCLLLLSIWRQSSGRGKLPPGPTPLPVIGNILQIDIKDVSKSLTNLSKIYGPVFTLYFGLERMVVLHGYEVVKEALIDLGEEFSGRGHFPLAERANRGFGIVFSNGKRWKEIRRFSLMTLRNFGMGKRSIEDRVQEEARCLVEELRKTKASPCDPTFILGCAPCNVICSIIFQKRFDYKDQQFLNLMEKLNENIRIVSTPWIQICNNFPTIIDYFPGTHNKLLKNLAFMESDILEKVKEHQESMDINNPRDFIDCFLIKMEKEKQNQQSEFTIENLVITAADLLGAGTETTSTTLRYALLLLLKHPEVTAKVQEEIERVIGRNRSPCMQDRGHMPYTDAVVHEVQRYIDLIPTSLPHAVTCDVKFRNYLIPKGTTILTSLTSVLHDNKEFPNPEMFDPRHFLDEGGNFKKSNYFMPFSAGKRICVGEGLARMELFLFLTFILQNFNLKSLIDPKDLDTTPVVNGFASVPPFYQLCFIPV

[9] = tested on: Salmonella typhimurium AR-0031; assay: S. typhimurium intracellular killing assay in THP-1 macrophages; assay type: cell-based; conditions: Salmonella typhimurium AR-0031 in THP-1 macrophages, top conc. 1e−4 M
Experimental: (§2) THP-1 monocytic cell line (American Type Culture Collection) was grown in media (RPMI + 10% FBS + 1% Penicillin/Streptomycin), then seeded at a density of 1e5 cells/well in a 96 well plate and differentiated into macrophages for 3 days prior to infection using 200 nM PMA. Overnight culture of S. aureus or S. typhimurium was grown in RPMI or TSB, respectively, washed twice with PBS and resuspended at 1e7 cfu/ml in PBS. THP-1 were washed with warm media (RMPI without FBS) to remove the Penicillin/Streptomycin and then infected with the bacterial suspension at a multiplicity of infection of 10:1 (S. aureus:macrophages) or 5:1 (S. typhimurium:macrophages). Plates were centrifuged at 300 × g for 5 min to synchronize adhesion of the bacteria to the macrophages, then incubated at 37 °C for 2 h for S. aureus infection or 1 h for S. typhimurium infection. Free-floating bacteria were removed by washing twice with warm media and the remaining extracellular bacteria were killed by addition of media containing gentamicin (50 ug/ml). After 1 h, media was aspirated and the indicated compound was added to the S. aureus-infected macrophages in a dilution series starting at 1e−6 M, with 1:5 dilutions for 6 points (1.0 × 10^−6 M, 2.0 × 10^−7 M, 4.0 × 10^−8 M, 8.0 × 10^−9 M, 1.6 × 10^−9 M, and 3.2 × 10^−10 M) or to the to the S. typhimurium-infected macrophages in a dilution series starting at 1e−4 M, with 1:3 dilutions followed by 1:10 dilutions for 6 points (1.0 × 10^−4 M, 3.0 × 10^−5 M, 1.0 × 10^−5 M, 1.0 × 10^−6 M, 1.0 × 10^−7 M, and 1.0 × 10^−8 M). The compounds were added in media containing 50 µg/ml gentamicin to prevent extracellular growth of bacteria. After 2 h, plates were washed twice with warm RPMI without FBS, and 100 μl of THP-1 lysis buffer (0.1% Triton in PBS) was added to each well. Bacterial survival was enumerated by colony forming units (cfu) through serial dilution and plating onto tryptic soy agar (TSA, Teknova) plates.

[10] = tested on: Salmonella typhimurium ATCC 14028; assay: as above; assay type: cell-based; conditions: Salmonella typhimurium ATCC 14028 in THP-1 macrophages, top conc. 1e−4 M
Experimental: as §2

[11] = tested on: CYP 2B6
[12] = tested on: Caco-2: endogenous transporters; assay: Caco-2 permeability
[13] = biological target: CYP 2C8 (Homo sapiens, UniProt P10632); assay: CYP inhibition; conditions: read-out: CYP inhibition IC50; CYP 2C8, substrate Amodiaquine; ND = Not Detected
CYP 2C8, sequence (P10632 whole entry): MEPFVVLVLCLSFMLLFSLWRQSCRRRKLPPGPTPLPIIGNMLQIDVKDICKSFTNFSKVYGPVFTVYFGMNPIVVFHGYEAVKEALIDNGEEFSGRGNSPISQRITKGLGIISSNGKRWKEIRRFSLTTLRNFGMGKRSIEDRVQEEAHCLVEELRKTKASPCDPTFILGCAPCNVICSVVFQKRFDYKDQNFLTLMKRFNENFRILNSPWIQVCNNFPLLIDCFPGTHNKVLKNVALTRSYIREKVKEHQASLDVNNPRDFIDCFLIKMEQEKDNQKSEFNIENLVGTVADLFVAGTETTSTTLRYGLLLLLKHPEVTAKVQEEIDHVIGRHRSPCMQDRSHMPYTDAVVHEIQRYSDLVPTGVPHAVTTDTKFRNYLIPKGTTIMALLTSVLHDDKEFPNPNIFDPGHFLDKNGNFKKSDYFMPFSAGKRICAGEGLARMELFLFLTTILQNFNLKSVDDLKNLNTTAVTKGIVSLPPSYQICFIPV

[14] = Compound stability in CYP induction assay
[15] = tested on: S. aureus NRS384; assay: S. aureus intracellular killing assay in THP-1 macrophages; assay type: cell-based; conditions: S. aureus NRS384 in THP-1 macrophages, 2 h, top conc. 1e−6 M
Experimental: as §2

[16] = tested on: Caco-2: endogenous transporters
[17] = S9 microsome stability, CD-1 mouse; conditions: text statement for rodent (mouse and rat) S9
[18] = tested on: S. aureus NRS384; assay: S. aureus broth killing (growth inhibition) assay; conditions: S. aureus NRS384, TSB, 24 h, OD600
From the text: as §3

[19] = tested on: CYP 3A4
[20] = rat, s9
[21] = biological target: CYP 3A4 (Homo sapiens, UniProt P08684); conditions: read-out: CYP inhibition IC50, ND = Not Detected
CYP 3A4 (Homo sapiens, UniProt P08684), sequence (P08684 whole entry): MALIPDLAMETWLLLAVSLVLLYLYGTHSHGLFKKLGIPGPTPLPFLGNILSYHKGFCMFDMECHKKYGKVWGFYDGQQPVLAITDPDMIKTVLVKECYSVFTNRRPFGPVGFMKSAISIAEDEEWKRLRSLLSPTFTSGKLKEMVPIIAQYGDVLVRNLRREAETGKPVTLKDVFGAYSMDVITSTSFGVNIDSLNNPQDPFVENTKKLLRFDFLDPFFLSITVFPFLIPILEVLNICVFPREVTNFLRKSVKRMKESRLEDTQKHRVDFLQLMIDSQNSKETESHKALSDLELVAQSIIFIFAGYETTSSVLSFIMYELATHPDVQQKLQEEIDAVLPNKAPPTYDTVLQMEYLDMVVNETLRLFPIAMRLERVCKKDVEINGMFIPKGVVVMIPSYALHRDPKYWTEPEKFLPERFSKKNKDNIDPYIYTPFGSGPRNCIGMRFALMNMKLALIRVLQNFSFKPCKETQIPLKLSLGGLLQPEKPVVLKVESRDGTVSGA

[22] = biological target: CYP 1A2 (Homo sapiens, UniProt P05177); conditions: read-out: CYP inhibition IC50; CYP 1A2, substrate Phenacetin; ND = Not Detected
CYP 1A2, sequence (P05177 whole entry): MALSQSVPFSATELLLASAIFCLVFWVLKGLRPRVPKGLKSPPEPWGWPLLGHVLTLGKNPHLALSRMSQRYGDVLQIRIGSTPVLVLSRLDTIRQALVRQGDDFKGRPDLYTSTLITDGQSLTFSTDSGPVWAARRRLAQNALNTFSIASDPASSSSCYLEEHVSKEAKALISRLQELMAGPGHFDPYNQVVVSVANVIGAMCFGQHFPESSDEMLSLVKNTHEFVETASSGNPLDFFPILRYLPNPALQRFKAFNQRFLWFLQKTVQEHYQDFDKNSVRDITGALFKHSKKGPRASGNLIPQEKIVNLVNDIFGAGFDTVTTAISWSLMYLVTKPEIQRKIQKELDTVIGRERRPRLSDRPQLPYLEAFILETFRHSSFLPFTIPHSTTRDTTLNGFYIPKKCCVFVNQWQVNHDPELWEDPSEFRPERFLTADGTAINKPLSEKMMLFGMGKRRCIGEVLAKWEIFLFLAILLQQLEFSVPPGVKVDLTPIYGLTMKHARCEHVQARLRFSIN

T1 sequence (P08183 whole entry): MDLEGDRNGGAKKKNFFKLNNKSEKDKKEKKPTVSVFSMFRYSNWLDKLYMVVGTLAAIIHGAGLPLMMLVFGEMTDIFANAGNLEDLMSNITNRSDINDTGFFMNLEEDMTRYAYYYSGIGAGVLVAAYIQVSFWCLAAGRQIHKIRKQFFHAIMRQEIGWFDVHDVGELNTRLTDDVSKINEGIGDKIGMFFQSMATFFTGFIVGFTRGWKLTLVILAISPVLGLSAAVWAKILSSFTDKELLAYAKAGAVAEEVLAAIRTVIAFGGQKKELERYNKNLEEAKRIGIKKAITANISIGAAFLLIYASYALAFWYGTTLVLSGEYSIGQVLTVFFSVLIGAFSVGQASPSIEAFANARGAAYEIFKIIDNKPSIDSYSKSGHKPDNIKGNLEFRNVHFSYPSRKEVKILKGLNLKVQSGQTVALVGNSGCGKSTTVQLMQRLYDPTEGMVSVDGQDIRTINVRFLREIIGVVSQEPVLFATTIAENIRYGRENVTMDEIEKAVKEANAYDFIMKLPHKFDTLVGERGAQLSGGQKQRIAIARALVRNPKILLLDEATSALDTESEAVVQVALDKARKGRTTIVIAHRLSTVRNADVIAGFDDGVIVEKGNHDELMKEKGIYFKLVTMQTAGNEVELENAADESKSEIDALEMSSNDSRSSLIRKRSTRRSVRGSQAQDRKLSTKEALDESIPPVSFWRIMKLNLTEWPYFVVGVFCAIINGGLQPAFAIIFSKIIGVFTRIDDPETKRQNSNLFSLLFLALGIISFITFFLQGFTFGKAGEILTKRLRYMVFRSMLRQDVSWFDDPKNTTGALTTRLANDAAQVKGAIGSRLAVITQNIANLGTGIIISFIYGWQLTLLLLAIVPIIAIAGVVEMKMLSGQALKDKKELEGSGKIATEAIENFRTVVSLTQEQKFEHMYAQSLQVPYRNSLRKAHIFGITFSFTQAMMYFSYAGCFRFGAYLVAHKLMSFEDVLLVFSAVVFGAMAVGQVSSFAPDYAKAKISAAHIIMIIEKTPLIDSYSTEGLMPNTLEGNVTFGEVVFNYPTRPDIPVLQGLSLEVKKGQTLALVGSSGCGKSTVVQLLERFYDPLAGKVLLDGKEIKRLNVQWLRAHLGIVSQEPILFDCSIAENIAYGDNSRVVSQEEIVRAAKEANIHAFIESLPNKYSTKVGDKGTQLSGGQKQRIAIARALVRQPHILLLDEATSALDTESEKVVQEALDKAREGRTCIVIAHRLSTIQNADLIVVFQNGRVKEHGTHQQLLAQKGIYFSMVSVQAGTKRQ

Structure (SMILES): COC1C=COC2(C)Oc3c(C)c(O)c4c(=O)c(c5oc6cc(OCCN(C)C)ccc6nc-5c4c3C2=O)NC(=O)C(C)=CC=CC(C)C(O)C(C)C(O)C(C)C(OC(C)=O)C1C (stereo not drawn) [Compound 4]
- Mean (B-A/A-B) Efflux Ratio [1]: 13.7
- bacterial load (kidney) ([2]; 0.01 mg/kg in combination with vancomycin): below the limit of detection
- S. aureus kidney burden ([2]; 0.01–0.75 mg/kg in combination with vancomycin): to or near the limit of detection
- S. aureus kidney burden [3]: further reduced kidney burden
- Broth MIC [4]: 1 µM
- T1/2 [5]: >2 h
- Mean A-B % Recovery [6]: 89.10%
- Mean B-A % Recovery [6]: 54.80%
- Mean Papp A-B [6]: 1.38 10^−6 cm/s
- Mean Papp B-A [6]: 18.9 10^−6 cm/s
- IC50 [7]: 11.6 µM
- IC50 [8]: 9.99 µM
- Intracellular MIC [9]: 30 µM
- Intracellular MIC [10]: 100 µM
- Fold Induction (Enzyme Activity) [11]: 0.0131
- Mean (B-A/A-B) Efflux Ratio [12]: 3.97
- IC50 [13]: 6.76 µM
- Average % Stability [14]: 75.8%
- Intracellular MIC [15]: 0.04 µM
- Mean A-B % Recovery [16]: 52.70%
- Mean B-A % Recovery [16]: 66.30%
- Mean Papp A-B [16]: 2.59 10^−6 cm/s
- Mean Papp B-A [16]: 10.3 10^−6 cm/s
- half-lives, rodent S9 microsomal stability [17]: greater than 120 min
- Broth MIC [18]: 0.00391 µM
- Fold Induction (Enzyme Activity) [19]: 0.128
- T1/2 [20]: >2 h
- IC50 ([21]; CYP 3A4, substrate Midazolam): 8.05 µM
- IC50 ([21]; CYP 3A4, substrate Testosterone): 5.66 µM
- IC50 [22]: 10.9 µM
